Reference: US10829501B2 (BRISTOL-MYERS SQUIBB COMPANY, priority 2016, dated 2020)
Counter-ions that a name gives are not always drawn.

target: ROCK2 (Homo sapiens, UniProt O75116); assay: ROCK2 kinase inhibition assay (LABCHIP 3000 Reader, FITC peptide substrate);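 note: rho kinase reaction read by separating phosphorylated from unphosphorylated peptide on chip, with inhibition of kinase activity computed per concentration across a dose-response series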
Sequence (O75116 whole entry, species assumed): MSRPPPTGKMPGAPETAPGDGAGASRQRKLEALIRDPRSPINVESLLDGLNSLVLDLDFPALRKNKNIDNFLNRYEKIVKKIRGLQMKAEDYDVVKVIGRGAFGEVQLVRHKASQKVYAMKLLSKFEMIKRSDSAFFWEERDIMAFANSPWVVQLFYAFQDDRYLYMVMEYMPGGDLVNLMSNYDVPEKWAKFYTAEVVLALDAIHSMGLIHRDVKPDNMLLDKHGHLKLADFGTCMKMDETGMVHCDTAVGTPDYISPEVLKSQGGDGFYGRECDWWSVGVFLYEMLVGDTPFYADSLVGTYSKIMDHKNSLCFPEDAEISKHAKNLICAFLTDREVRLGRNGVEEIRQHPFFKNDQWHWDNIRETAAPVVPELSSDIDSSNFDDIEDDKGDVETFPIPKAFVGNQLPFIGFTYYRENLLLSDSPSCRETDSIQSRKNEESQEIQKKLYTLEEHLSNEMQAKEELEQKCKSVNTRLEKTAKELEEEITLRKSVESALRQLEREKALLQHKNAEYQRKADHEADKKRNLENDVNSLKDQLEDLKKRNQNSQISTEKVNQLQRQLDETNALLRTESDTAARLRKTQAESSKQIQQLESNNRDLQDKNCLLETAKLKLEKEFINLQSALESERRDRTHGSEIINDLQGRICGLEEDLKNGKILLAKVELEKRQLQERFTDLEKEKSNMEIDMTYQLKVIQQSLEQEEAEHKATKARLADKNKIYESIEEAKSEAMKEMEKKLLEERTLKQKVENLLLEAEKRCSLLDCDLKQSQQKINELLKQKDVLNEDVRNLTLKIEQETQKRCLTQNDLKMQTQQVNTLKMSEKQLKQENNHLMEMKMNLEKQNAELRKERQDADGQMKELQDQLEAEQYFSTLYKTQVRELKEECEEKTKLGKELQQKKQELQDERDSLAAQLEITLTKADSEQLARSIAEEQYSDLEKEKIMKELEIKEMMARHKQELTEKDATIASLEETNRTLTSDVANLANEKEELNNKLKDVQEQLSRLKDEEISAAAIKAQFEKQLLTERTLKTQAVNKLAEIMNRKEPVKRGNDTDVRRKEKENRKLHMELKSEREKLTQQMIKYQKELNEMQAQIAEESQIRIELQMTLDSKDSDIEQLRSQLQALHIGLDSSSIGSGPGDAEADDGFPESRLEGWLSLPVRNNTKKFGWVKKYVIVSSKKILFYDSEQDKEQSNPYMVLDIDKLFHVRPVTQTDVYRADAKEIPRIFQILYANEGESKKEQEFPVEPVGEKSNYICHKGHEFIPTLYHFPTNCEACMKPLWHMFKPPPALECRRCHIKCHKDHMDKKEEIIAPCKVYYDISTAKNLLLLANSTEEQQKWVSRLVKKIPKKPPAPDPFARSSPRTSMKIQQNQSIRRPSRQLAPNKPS

Compound	IC50 [nM]
NC(=O)c1cccnc1O[C@H]1CC2(C[C@H](NC(=O)c3nc(-c4nc5ccccc5s4)cs3)C2)C1 (stereo partly drawn) [Example 144, 4-(benzo[d]thiazol-2-yl)-N-((aR)-6-((3-carbamoylpyridin-2-yl)oxy)spiro [3.3]heptan-2-yl)thiazole-2-carboxamide, trifluoroacetate]	250 to 2500
NC(=O)c1cccnc1O[C@H]1CC2(C[C@H](NC(=O)c3nc(-c4ccccn4)cs3)C2)C1 (stereo partly drawn) [Example 145, N-((aR)-6-((3-carbamoylpyridin-2-yl)oxy)spiro[3.3]heptan-2-yl)-4-(pyridin-2-yl) thiazole-2-carboxamide, trifluoroacetate]	250 to 2500
Cn1c(-c2nc(C(=O)N[C@H]3CC4(C3)C[C@H](Oc3ncccc3C(N)=O)C4)cs2)nc2ccccc21 (stereo partly drawn) [Example 146, N-((aR)-6-((3-carbamoylpyridin-2-yl)oxy)spiro[3.3]heptan-2-yl)-2-(1-methyl-1H-benzo[d]imidazol-2-yl)thiazole-4-carboxamide, trifluoroacetate]	50 to 250
NC(=O)c1cccnc1O[C@H]1CC2(C[C@H](NC(=O)c3cc(S(N)(=O)=O)c(F)cc3Cl)C2)C1 (stereo partly drawn) [Example 148, 2-(((aR)-6-(2-chloro-4-fluoro-5-sulfamoylbenzamido)spiro[3.3]heptan-2-yl)oxy) nicotinamide, trifluoroacetate]	50 to 250
NC(=O)c1cccnc1O[C@H]1CC2(C[C@H](NC(=O)c3cn4cc(Cl)ccc4n3)C2)C1 (stereo partly drawn) [Example 153, N-((aR)-6-((3-carbamoylpyridin-2-yl)oxy)spiro[3.3]heptan-2-yl)-6-chloroimidazo[1,2-a]pyridine-2-carboxamide, trifluoroacetate]	250 to 2500
Cn1c(C(=O)N[C@H]2CC3(C2)C[C@H](Oc2ncccc2C(N)=O)C3)cc2ccc(Cl)cc21 (stereo partly drawn) [Example 154, N-((aR)-6-((3-carbamoylpyridin-2-yl)oxy)spiro[3.3]heptan-2-yl)-6-chloro-1-methyl-1H-indole-2-carboxamide]	50 to 250
CC1(C)Cc2cccc(C(=O)N[C@H]3CC4(C3)C[C@H](Oc3ncccc3C(N)=O)C4)c2O1 (stereo partly drawn) [Example 163, 2-(((aR)-6-(2,2-dimethyl-2,3-dihydrobenzofuran-7-carboxamido)spiro[3.3]heptan-2-yl)oxy) nicotinamide]	250 to 2500
CC(C)(O)COc1ccn2c(C(=O)NC3CC4(C3)CC(Oc3ncccc3C(N)=O)C4)cnc2c1 (centres unmarked) [Example 166, N-((αR)-6-((3-carbamoylpyridin-2-yl)oxy)spiro[3.3]heptan-2-yl)-7-(2-hydroxy-2-methylpropoxy) imidazo[1,2-a]pyridine-3-carboxamide]	5 to 50
COc1ccc(C(N)=O)c(O[C@H]2CC3(C[C@H](NC(=O)c4cnn5c(C6CC6)c(OCC(C)(C)O)ccc45)C3)C2)n1 (stereo partly drawn) [Example 167, N-((aR)-6-((3-carbamoyl-6-methoxypyridin-2-yl)oxy)spiro[3.3]heptan-2-yl)-7-cyclopropyl-6-(2-hydroxy-2-methylpropoxy)pyrazolo [1,5-a]pyridine-3-carboxamide]	< 5
COc1ccc(C(N)=O)c(O[C@H]2CC3(C[C@H](NC(=O)c4cnn5c(CCC(F)(F)F)c(OCC(C)(C)O)ccc45)C3)C2)n1 (stereo partly drawn) [Example 168, N-((aR)-6-((3-carbamoyl-6-methoxypyridin-2-yl)oxy)spiro[3.3]heptan-2-yl)-6-(2-hydroxy-2-methylpropoxy)-7-(3,3,3-trifluoropropyl)pyrazolo [1,5-a]pyridine-3-carboxamide]	< 5
COc1ccc(C(N)=O)c(O[C@H]2CC3(C[C@H](NC(=O)c4nn(CC(C)(C)O)c5ccc(F)cc45)C3)C2)n1 (stereo partly drawn) [Example 169, N-((aR)-6-((3-carbamoyl-6-methoxypyridin-2-yl)oxy)spiro[3.3]heptan-2-yl)-5-fluoro-1-(2-hydroxy-2-methylpropyl)-1H-indazole-3-carboxamide]	5 to 50
NC(=O)c1cccnc1O[C@H]1CC2(C[C@H](NC(=O)c3cnc4c(C5CC5)cccn34)C2)C1 (stereo partly drawn) [Example 170, N-((aR)-6-((3-carbamoylpyridin-2-yl)oxy)spiro[3.3]heptan-2-yl)-8-cyclopropylimidazo[1,2-a]pyridine-3-carboxamide, Trifluoroacetate]	50 to 250
NC(=O)c1cccnc1O[C@H]1CC2(C[C@H](NC(=O)c3nn(C(F)F)c4cc(OCc5ccccc5)ccc34)C2)C1 (stereo partly drawn) [Example 171, 6-(benzyloxy)-N-((aR)-6-((3-carbamoylpyridin-2-yl)oxy)spiro[3.3]heptan-2-yl)-1-(difluoromethyl)-1H-indazole-3-carboxamide, trifluoroacetate]	5 to 50
NC(=O)c1cccnc1O[C@H]1CC2(C[C@H](NC(=O)c3nn(C(F)F)c4cc(Br)ccc34)C2)C1 (stereo partly drawn) [Example 172, 6-bromo-N-((aR)-6-((3-carbamoylpyridin-2-yl)oxy)spiro[3.3]heptan-2-yl)-1-(difluoromethyl)-1H-indazole-3-carboxamide, trifluoroacetate]	5 to 50
[2H]C([2H])([2H])n1nc(C(=O)N[C@H]2CC3(C2)C[C@H](Oc2ncccc2C(N)=O)C3)c2ccc(F)cc21 (stereo partly drawn) [Example 174, 6-fluoro-1-(^2H3)methyl-N-[(aR)-6-[(3-carbamoylpyridin-2-yl)oxy]spiro[3.3]heptan-2-yl]-1H-indazole-3-carboxamide, trifluoroacetate]	5 to 50

Results, then the compound that gave them:

IC50 [nM]	Compound
250 to 2500	COc1ccc(CCc2ccccc2C(=O)N[C@H]2CC3(C2)C[C@H](Oc2ncccc2C(N)=O)C3)cc1 (stereo partly drawn) [Example 143, 2-(((aR)-6-(2-(4-methoxyphenethyl)benzamido)spiro[3.3]heptan-2-yl)oxy)nicotinamide, trifluoroacetate]
250 to 2500	Cc1noc(-c2cccc(C(=O)N[C@H]3CC4(C3)C[C@H](Oc3ncccc3C(N)=O)C4)c2)n1 (stereo partly drawn) [Example 147, 2-(((aR)-6-(3-(3-methyl-1,2,4-oxadiazol-5-yl)benzamido)spiro[3.3]heptan-2-yl)oxy) nicotinamide, trifluoroacetate]
50 to 250	NC(=O)c1cccnc1O[C@H]1CC2(C[C@H](NC(=O)c3ccc4c(c3)S(=O)(=O)NC4=O)C2)C1 (stereo partly drawn) [Example 149, N-((aR)-6-((3-carbamoylpyridin-2-yl)oxy)spiro[3.3]heptan-2-yl)-3-oxo-2,3-dihydrobenzo[d] isothiazole-6-carboxamide 1,1-dioxide, trifluoroacetate]
5 to 50	NC(=O)c1cccnc1O[C@H]1CC2(C[C@H](NC(=O)c3ccc(F)c(S(N)(=O)=O)c3)C2)C1 (stereo partly drawn) [Example 150, 2-(((aR)-6-(4-fluoro-3-sulfamoylbenzamido)spiro[3.3]heptan-2-yl)oxy) nicotinamide, trifluoroacetate]
250 to 2500	NC(=O)c1cccnc1O[C@H]1CC2(C[C@H](NC(=O)c3ccc4[nH]c(=O)c(=O)[nH]c4c3)C2)C1 (stereo partly drawn) [Example 151, N-((aR)-6-((3-carbamoylpyridin-2-yl)oxy)spiro[3.3]heptan-2-yl)-2,3-dioxo-1,2,3,4-tetrahydroquinoxaline-6-carboxamide, trifluoroacetate]
5 to 50	NC(=O)c1cccnc1O[C@H]1CC2(C[C@H](NC(=O)c3ccc(Cl)c(S(N)(=O)=O)c3)C2)C1 (stereo partly drawn) [Example 152, 2-(((aR)-6-(4-chloro-3-sulfamoylbenzamido)spiro[3.3]heptan-2-yl)oxy) nicotinamide, trifluoroacetate]
250 to 2500	N#Cc1ccc(F)c(C(=O)N[C@H]2CC3(C2)C[C@H](Oc2ncccc2C(N)=O)C3)c1 (stereo partly drawn) [Example 155, 2-(((aR)-6-(5-cyano-2-fluorobenzamido)spiro[3.3]heptan-2-yl)oxy)nicotinamide]
50 to 250	N#Cc1cc(C(=O)N[C@H]2CC3(C2)C[C@H](Oc2ncccc2C(N)=O)C3)ccc1F (stereo partly drawn) [Example 156, 2-(((aR)-6-(3-cyano-4-fluorobenzamido)spiro[3.3]heptan-2-yl)oxy) nicotinamide]
50 to 250	N#Cc1cc(F)cc(C(=O)N[C@H]2CC3(C2)C[C@H](Oc2ncccc2C(N)=O)C3)c1 (stereo partly drawn) [Example 157, 2-(((aR)-6-(3-cyano-5-fluorobenzamido)spiro[3.3]heptan-2-yl)oxy) nicotinamide]
50 to 250	N#Cc1cccc(C(=O)N[C@H]2CC3(C2)C[C@H](Oc2ncccc2C(N)=O)C3)c1 (stereo partly drawn) [Example 158, 2-(((aR)-6-(3-cyanobenzamido)spiro[3.3]heptan-2-yl)oxy) nicotinamide]
50 to 250	NC(=O)c1cccnc1O[C@H]1CC2(C[C@H](NC(=O)c3cc4ccccc4cn3)C2)C1 (stereo partly drawn) [Example 159, N-((aR)-6-((3-carbamoylpyridin-2-yl)oxy)spiro[3.3]heptan-2-yl)isoquinoline-3-carboxamide]
50 to 250	N#Cc1cccc(-c2ccc(C(=O)N[C@H]3CC4(C3)C[C@H](Oc3ncccc3C(N)=O)C4)cc2)c1 (stereo partly drawn) [Example 160, 2-(((aR)-6-(3′-cyano-[1,1′-biphenyl]-4-ylcarboxamido)spiro[3.3]heptan-2-yl)oxy) nicotinamide]
5 to 50	N#Cc1ccc(-c2ccc(C(=O)N[C@H]3CC4(C3)C[C@H](Oc3ncccc3C(N)=O)C4)cn2)cc1 (stereo partly drawn) [Example 161, N-((aR)-6-((3-carbamoylpyridin-2-yl)oxy)spiro[3.3]heptan-2-yl)-6-(4-cyanophenyl) nicotinamide]
5 to 50	NC(=O)c1cccnc1O[C@H]1CC2(C[C@H](NC(=O)c3ccc(-c4cccc(F)c4)cc3)C2)C1 (stereo partly drawn) [Example 162, 2-(((aR)-6-(3′-fluoro-[1,1′-biphenyl]-4-ylcarboxamido)spiro[3.3]heptan-2-yl)oxy)nicotinamide]
250 to 2500	Cc1nc(-c2ccccc2)oc1C(=O)N[C@H]1CC2(C1)C[C@H](Oc1ncccc1C(N)=O)C2 (stereo partly drawn) [Example 164, N-((aR)-6-((3-carbamoylpyridin-2-yl)oxy)spiro[3.3]heptan-2-yl)-4-methyl-2-phenyloxazole-5-carboxamide]
50 to 250	NC(=O)c1cccnc1O[C@H]1CC2(C[C@H](NC(=O)c3ncoc3-c3ccccc3)C2)C1 (stereo partly drawn) [Example 165, N-((aR)-6-((3-carbamoylpyridin-2-yl)oxy)spiro[3.3]heptan-2-yl)-5-phenyloxazole-4-carboxamide]
5 to 50	Cn1nc(C(=O)N[C@H]2CC3(C2)C[C@H](Oc2ncccc2C(N)=O)C3)c2ccc(F)cc21 (stereo partly drawn) [Example 173, N-((aR)-6-((3-carbamoylpyridin-2-yl)oxy)spiro[3.3]heptan-2-yl)-6-fluoro-1-methyl-1H-indazole-3-carboxamide, trifluoroacetate]
